Source: publication PMC9917099, “The Mycotoxin Patulin Inhibits the Mitochondrial Carnitine/Acylcarnitine Carrier (SLC25A20) by Interaction with Cys136 Implications for Human Health” (International Journal of Molecular Sciences, 2023)

Biological target: T1, rat CAC mutant C23V/C58V/C89S/C136V/C283S (Rattus norvegicus, UniProt P97521, C136V/C23V/C283S/C58V/C89S)
T1 construct: made in house; host or cells: E. coli C0214 (pMW7, inclusion bodies)
T1 sequence (P97521 1-301 C23V/C58V/C89S/C136V/C283S): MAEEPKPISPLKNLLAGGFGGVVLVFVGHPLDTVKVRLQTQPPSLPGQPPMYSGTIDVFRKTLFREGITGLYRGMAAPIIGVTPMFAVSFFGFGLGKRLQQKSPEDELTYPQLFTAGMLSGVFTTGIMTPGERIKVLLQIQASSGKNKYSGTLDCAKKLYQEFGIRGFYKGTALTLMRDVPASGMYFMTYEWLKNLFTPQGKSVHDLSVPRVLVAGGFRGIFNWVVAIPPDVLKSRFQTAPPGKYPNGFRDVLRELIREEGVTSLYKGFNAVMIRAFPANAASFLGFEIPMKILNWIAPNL
Assay: Carnitine antiport in proteoliposomes, CAC mutant containing only C155
Format: biochemical
Procedure: To shed light on the interaction between PAT and CAC and verify if specific Cys residues were involved, transport experiments on the recombinant rat and human WT CAC and CAC’s rat Cys mutants were performed. As in the case of the native protein, transport activities were measured as [^3H]-carnitine/carnitine antiport in proteoliposomes. […] The PAT inhibition of the WT recombinant protein was only slightly greater compared to the native protein, although compounds and other molecular systems that affect the mycotoxin binding to the native CAC were absent (see above). For identifying the residues involved in the PAT interaction, site-directed Cys mutants were tested for inhibition (Figure 2). […]
Figure 2 Dose-response analysis of the PAT inhibition of the CAC recombinant proteins. […] The data are expressed as a percentage of the controls (no PAT addition) and are means ± SD of three independent experiments. […]
For the transport assay, 550 μL of proteoliposomes were passed through a Sephadex G-75 column in order to remove the external substrate. […] After finishing the transport reaction, the external radiolabel substrate was removed by gel filtration chromatography (Sephadex G-75), and the intraliposomal radioactivity was measured by liquid scintillation. Transport was measured at 25 °C. […] Transport rates were measured in 10 min, i.e., within the initial linear range of the time course.

O=C1C=C2C(=CCOC2O)O1 (stereo not shown) [PAT, 4-hydroxy-4H-furo [3,2c] pyran-2 [6H] -one]
IC50: not possible to detect
